In PubChem BioAssay AID179 (DTP/NCI, 2004) one finds EC50, IC50 and outcome data, which are given here for 52 molecules.

For orientation: EC50 means the midpoint of the concentration-response curve. What is called IC50 is the concentration needed to halve the response being measured. Read a high IC50 as weaker potency.

The source made the active and inactive calls.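 Rule for the calls: active = compounds giving half or more protection of infected cells from virus-caused growth loss, again on retest; inactive = the rest.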

The subject of this experiment is CEM cells HIV-1 protection, formazan growth assay. As to the kind of experiment: NCI AIDS Antiviral Assay. To be noted: for IC50: measured here: growth of uninfected CEM cells. A digest of the protocol: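 Screen of anti-HIV-1 activity in human CEM cells using a formazan-based growth measurement at five drug concentrations. Hits with 50% or greater protection were repeated, and confirmation required reproducible complete protection.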

`CCCCCCCCC[C@@H]1C[C@H](O)[C@H](Cc2ccccc2)N1C(=O)OC(C)(C)C`: the EC50 was over 200 µM and the IC50 came to 35.5 µM.
Taken in the same sequence, the figures for `O=C1c2ccccc2CCC1(Br)Cc1ccccc1` (stereo not drawn) were over 200 µM and 20.4 µM.
Taken in the same sequence, the figures for `O=c1c(F)cn2c(=O)n1CCCCCCCn1c(=O)c(F)cn(c1=O)CCCCCCC2` were over 200 µM and 155 µM.
On to `C1=Nc2ccccc2/C1=C/c1c[nH]c2ccccc12`, for which the EC50 was 0.0631 µM and the IC50 was over 200 µM.
On to `CC1(C)N=[N+]([O-])C1(C)C`, for which the EC50 is over 200 µM and the IC50 is over 200 µM.
Take `c1ccc(C2(c3ccccc3)S/C(=C3/SC(c4ccccc4)(c4ccccc4)c4ccccc43)c3ccccc32)cc1`: the outcome was inactive.
`O=P1(NCCCl)OCCCN1CCCl` (stereo not drawn): the EC50 is over 955 µM and the IC50 is over 955 µM.
As for `CCCCCCc1nn2c(-c3ccc(C)cc3)nnc2s1`, the EC50 was over 200 µM and the IC50 was over 200 µM.
Take `COc1cc2c(c([N+](=O)[O-])c1)NC(=O)CC(C)S2` (stereo not drawn): the EC50 was 95.5 µM and the IC50 is 148 µM.
For the molecule `CCOC(=O)C(NC(=O)CC(C)C)(Nc1ccc(S(=O)(=O)Nc2nc(C)cc(C)n2)cc1)C(F)(F)F` (stereo not drawn), the EC50 is over 200 µM and the concentration for half-maximal inhibition (IC50) was over 200 µM.
On to `CC(C)Oc1cc2c(c3oc(=O)cc(CCl)c13)C(=O)[C@H](C)[C@@H](C)O2`, for which the EC50 was over 200 µM and the IC50 was determined as 5.37 µM.
In the same order, the values of `CCc1cc2c(oc3c4ccccc4ccc23)c(=O)[nH]1` are over 200 µM and over 200 µM.
Taken in the same sequence, the figures for `CCCCCCC(=O)COP(=O)(OCC(=O)CCCCCC)OCC1C=CC(n2cc(C)c(=O)[nH]c2=O)O1` (stereo not drawn) were 0.562 µM and 174 µM.
As for `O=C1CCCC/C1=C\c1ccc([N+](=O)[O-])cc1`, the EC50 is over 200 µM and the IC50 stood at 6.03 µM.
In the same order, the values of `Cn1cc(N)cc1C(=O)Nc1ccc(S(=O)(=O)O)c2cc(S(=O)(=O)O)ccc12` are over 490 µM and over 490 µM.
Consider `NC(=O)c1ncn(CC2(CO)CCC2)n1`, for which the EC50 is over 200 µM and the IC50 was over 200 µM.
Turning to `O=C(O)c1ccc([N+](=O)[O-])cc1S(=O)(=O)O`, the EC50 was over 200 µM and the half-maximal inhibitory concentration (IC50) is over 200 µM.
Turning to `CN=C(NC#N)NCCSCc1nc[nH]c1C`, the EC50 was over 389 µM and the IC50 is over 389 µM.
On to `Cc1ccc2c3c(c(C)nc2c1)C(=O)c1ccccc1-3`, for which the EC50 is over 10.5 µM and the IC50 was over 10.5 µM.
`Brc1ccc2c(c1)C1C(CO2)C(c2ccccc2)=NN1c1ccccc1` (stereo not drawn): the EC50 was over 64.6 µM and the IC50 is over 64.6 µM.
As to `COc1cc(C2c3cc4c(cc3OC(NN)C2C)OCO4)cc(OC)c1OC` (stereo not drawn), the EC50 was over 200 µM and the IC50 was 1 µM.
Taken in the same sequence, the figures for `Oc1c(C2=NNC(c3cccs3)C2)ccc2ccccc12` (stereo not drawn) were over 200 µM and 33.1 µM.
In the same order, the values of `Cc1cc(C)nc(NS(=O)(=O)c2ccc(Nc3c4ccc(Cl)cc4nc4c(C(=O)Nc5ccc(S(N)(=O)=O)cc5)cccc34)cc2)n1` are over 52.5 µM and 42.7 µM.
Taken in the same sequence, the figures for `CN(Cc1ccccc1)c1cc(=O)n(C)c(=O)[nH]1` were over 200 µM and over 200 µM.
As for `CCCCCCCCCCCC(=O)Oc1c(Cl)cc(Cl)c(OC(=O)C(=O)Oc2c(Cl)cc(Cl)c(OC(=O)CCCCCCCCCCC)c2Cl)c1Cl`, the outcome was inactive.
Turning to `Cc1ccccc1C1OC1C(=O)c1ccccc1N` (stereo not drawn), the EC50 is over 200 µM and the IC50 was determined as 46.8 µM.
Taken in the same sequence, the figures for `COC(=O)C1=C(O)C(C(=O)OC)C2(C3CC=CC3)C(C(=O)OC)=C(O)C(C(=O)OC)C12` (stereo not drawn) were over 214 µM and over 214 µM.
In the same order, the values of `COC(=O)N/N=C(\C)CC(=O)Nc1ccc(Cl)cc1` are over 91.2 µM and over 91.2 µM.
`O=S1(=O)CC2C3C=CC(O3)C21` (stereo not drawn): the EC50 was over 1450 µM and the concentration for half-maximal inhibition (IC50) was over 1450 µM.
As to `CC(=O)OC1=C2CC[C@@H]3C(CC[C@@]4(C)C3CC[C@@H]4OC(C)=O)[C@@]2(C)CC(C#N)C1=O` (stereo partly drawn), the result was inactive.
`COc1cc2c3c(c1)C(O)CC[N+]3(C)CCC2` (stereo not drawn): the EC50 is over 200 µM and the IC50 was over 200 µM.
`CCNC(=O)c1ccccc1S(C)=O` (stereo not drawn): the EC50 is over 200 µM and the IC50 was over 200 µM.
Regarding `Cn1c(=O)c2c(nc3n(Cc4ccccc4)c(=O)c(NCCBr)cn23)n(C)c1=O`, the EC50 was over 126 µM and the IC50 was 49 µM.
For `CC(C)=CCOc1cc(NC(=S)c2ccsc2C)ccc1Cl`, the EC50 was 0.0417 µM and the IC50 was 15.8 µM.
As to `CCN1C[C@]2(C)CCC(OC)C34[C@@H]5C[C@@H]6C(OC)[C@@H]5[C@@]5(C[C@@H]6OC)OCO[C@]5([C@H]13)[C@@H](OC(C)=O)[C@@H]42` (stereo partly drawn), the outcome was inactive.
Take `Cc1ccc(S(=O)(=O)Nn2c(O)c(C#N)c(-c3ccc(N(C)C)cc3)c(C#N)c2=O)cc1`: the EC50 is over 200 µM and the IC50 is over 200 µM.
For `NC(=O)ON=C1CCN(Cc2ccccc2)CC1`, the EC50 was over 200 µM and the half-maximal inhibitory concentration (IC50) is over 200 µM.
For `O=C1C(=Cc2ccc(Cl)cc2)C(=O)c2ccccc21`, the EC50 is over 17.4 µM and the IC50 was over 17.4 µM.
On to `Nc1cc2c3c(c1)Oc1cc(N)cc4c1C3c1c(cc(N)cc1O4)O2`, for which the EC50 is over 30.9 µM and the IC50 stood at 23.4 µM.
For the molecule `O=C1COc2cc(N3CCN(c4cccc(C(F)(F)F)c4)CC3)ccc2N1`, the EC50 is over 200 µM and the IC50 is over 200 µM.
Regarding `COc1ccc(N2C(=O)/C(=C\c3cccc(Oc4ccccc4)c3)SC2c2ccccc2)cc1` (stereo not drawn), the EC50 was over 200 µM and the IC50 stood at 8.51 µM.
Taken in the same sequence, the figures for `CC(=O)Oc1ccc(/C=C/C(=O)O[C@@H](C)[C@H](C)OC(=O)/C=C/c2ccc(OC(C)=O)c(OC(C)=O)c2)cc1OC(C)=O` were over 100 µM and 5.62 µM.
For the molecule `CN(C)c1ccc(N=O)cc1`, the EC50 was over 2 µM and the IC50 was 1.12 µM.
Taken in the same sequence, the figures for `COc1ccc2c(c1)c1ccc3c(c1n2C)C(=O)C=CC3=O` were over 89.1 µM and 2.95 µM.
In the same order, the values of `CC1=CC2=C(C#N)C(=O)OC2(C)C(c2ccccc2)C1` (stereo not drawn) are over 200 µM and 117 µM.
Consider `COC(=O)CCN(CCC(=O)OC)C1CC1`, for which the EC50 was over 200 µM and the IC50 was over 200 µM.
As for `CNC1C(OC2C(OC3C(O)C(O)C(N=C(N)N)C(O)C3N=C(N)N)OC(C)C2(O)CO)OC(CO)C(O)C1O` (stereo not drawn), the result was inactive.
With `O=c1[nH][nH]c(=O)c2c1[nH]c(=S)n2Cc1ccccc1`, the EC50 was over 912 µM and the concentration for half-maximal inhibition (IC50) is over 912 µM.
As to `O=C(OCc1ccccc1)N(CCCCN(CCCNC(=O)C(F)(F)F)C(=O)OCc1ccccc1)CCCNC(=O)C(F)(F)F`, the result was inactive.
`CN(C)CCSc1cc(-c2ccccc2)c2ccccc2n1`: the EC50 is over 200 µM and the IC50 is 6.31 µM.
Consider `COc1ccc2c(c1)CCC1=C2CCC(=O)C1C` (stereo not drawn) (tested in a mixture with another compound), for which the EC50 was over 200 µM and the IC50 amounted to 7.94 µM.
In the same order, the values of `COC(=O)N1C2CCCCC2=NN(c2ccccc2)N1C(=O)OC` (stereo not drawn) are over 204 µM and over 204 µM.
